Measurements from PubChem BioAssay (NCI).
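1) Cells in 96-well plates. 2) Compound, 48 h, 5 concentrations. 3) Linear interpolation between surrounding doses. 4) Unreached endpoint = highest concentration. TGI: concentration producing complete growth inhibition.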

Each molecule was assayed on SN12C renal (assay: DTP human tumour cell line panel, 48 h).

| Compound | TGI [µM] |
| --- | --- |
| CCCCCCCCCCCCCC(=O)OC1C(O)C(CO)OC(OC)C1NC(=O)N(CCCl)N=O (stereo unspecified) | > 100 |

These molecules were tested on HL-60(TB) leukemia (assay: DTP human tumour cell line panel, 48 h).

| Compound | TGI [µM] |
| --- | --- |
| COC(=O)/C(=N\NC(=O)c1ccccc1O)C(C#N)c1ccccc1 (stereo unspecified) | > 50 |
| O=S1(=O)OCCOS(=O)(=O)C1(Br)Cc1ccccc1 | > 100 |
| C=CCSc1ncnc2c1ncn2C1OC(CO)C(O)C1O (stereo unspecified) | > 100 |
| CC1CCC2(OCCO2)[C@]2(C)CC(O)C(=O)C=C12 (stereo partly specified) | > 100 |

What follows are molecules tested on OVCAR-3 ovarian (assay: DTP human tumour cell line panel, 48 h).

| Compound | TGI [µM] |
| --- | --- |
| COC(=O)/C(=N\NC(=O)c1ccccc1O)C(C#N)c1ccccc1 (stereo unspecified) | > 40.6 |
| O=S1(=O)OCCOS(=O)(=O)C1(Br)Cc1ccccc1 | > 100 |
| C=CCSc1ncnc2c1ncn2C1OC(CO)C(O)C1O (stereo unspecified) | > 100 |
| CC1CCC2(OCCO2)[C@]2(C)CC(O)C(=O)C=C12 (stereo partly specified) | > 100 |
| CCCCCCCCCCCCCC(=O)OC1C(O)C(CO)OC(OC)C1NC(=O)N(CCCl)N=O (stereo unspecified) | > 100 |

Each molecule was assayed on HCT-116 colon (assay: DTP human tumour cell line panel, 48 h).

| Compound | TGI [µM] |
| --- | --- |
| COC(=O)/C(=N\NC(=O)c1ccccc1O)C(C#N)c1ccccc1 (stereo unspecified) | > 50 |
| O=S1(=O)OCCOS(=O)(=O)C1(Br)Cc1ccccc1 | > 100 |
| C=CCSc1ncnc2c1ncn2C1OC(CO)C(O)C1O (stereo unspecified) | > 100 |

What follows are molecules tested on MALME-3M melanoma (assay: DTP human tumour cell line panel, 48 h).

| Compound | TGI [µM] |
| --- | --- |
| COC(=O)/C(=N\NC(=O)c1ccccc1O)C(C#N)c1ccccc1 (stereo unspecified) | > 50 |
| O=S1(=O)OCCOS(=O)(=O)C1(Br)Cc1ccccc1 | > 100 |
| C=CCSc1ncnc2c1ncn2C1OC(CO)C(O)C1O (stereo unspecified) | > 100 |
| CC1CCC2(OCCO2)[C@]2(C)CC(O)C(=O)C=C12 (stereo partly specified) | > 100 |
| CCCCCCCCCCCCCC(=O)OC1C(O)C(CO)OC(OC)C1NC(=O)N(CCCl)N=O (stereo unspecified) | > 100 |

What follows are molecules tested on SF-295 CNS (assay: DTP human tumour cell line panel, 48 h).

| Compound | TGI [µM] |
| --- | --- |
| COC(=O)/C(=N\NC(=O)c1ccccc1O)C(C#N)c1ccccc1 (stereo unspecified) | > 50 |
| O=S1(=O)OCCOS(=O)(=O)C1(Br)Cc1ccccc1 | > 100 |
| C=CCSc1ncnc2c1ncn2C1OC(CO)C(O)C1O (stereo unspecified) | > 100 |
| CC1CCC2(OCCO2)[C@]2(C)CC(O)C(=O)C=C12 (stereo partly specified) | > 100 |
| CCCCCCCCCCCCCC(=O)OC1C(O)C(CO)OC(OC)C1NC(=O)N(CCCl)N=O (stereo unspecified) | > 100 |

Each molecule was assayed on M14 melanoma (assay: DTP human tumour cell line panel, 48 h).

| Compound | TGI [µM] |
| --- | --- |
| COC(=O)/C(=N\NC(=O)c1ccccc1O)C(C#N)c1ccccc1 (stereo unspecified) | > 50 |
| O=S1(=O)OCCOS(=O)(=O)C1(Br)Cc1ccccc1 | > 100 |
| C=CCSc1ncnc2c1ncn2C1OC(CO)C(O)C1O (stereo unspecified) | > 100 |
| CC1CCC2(OCCO2)[C@]2(C)CC(O)C(=O)C=C12 (stereo partly specified) | > 100 |
| CCCCCCCCCCCCCC(=O)OC1C(O)C(CO)OC(OC)C1NC(=O)N(CCCl)N=O (stereo unspecified) | > 100 |

These molecules were tested on DMS 114 small cell lung (assay: DTP human tumour cell line panel, 48 h).

| Compound | TGI [µM] |
| --- | --- |
| COC(=O)/C(=N\NC(=O)c1ccccc1O)C(C#N)c1ccccc1 (stereo unspecified) | > 50 |
| O=S1(=O)OCCOS(=O)(=O)C1(Br)Cc1ccccc1 | > 100 |
| C=CCSc1ncnc2c1ncn2C1OC(CO)C(O)C1O (stereo unspecified) | 70.4 |
| CC1CCC2(OCCO2)[C@]2(C)CC(O)C(=O)C=C12 (stereo partly specified) | > 100 |

What follows are molecules tested on HCT-15 colon (assay: DTP human tumour cell line panel, 48 h).

| Compound | TGI [µM] |
| --- | --- |
| COC(=O)/C(=N\NC(=O)c1ccccc1O)C(C#N)c1ccccc1 (stereo unspecified) | > 50 |
| O=S1(=O)OCCOS(=O)(=O)C1(Br)Cc1ccccc1 | > 100 |
| C=CCSc1ncnc2c1ncn2C1OC(CO)C(O)C1O (stereo unspecified) | > 100 |
| CC1CCC2(OCCO2)[C@]2(C)CC(O)C(=O)C=C12 (stereo partly specified) | > 100 |
| CCCCCCCCCCCCCC(=O)OC1C(O)C(CO)OC(OC)C1NC(=O)N(CCCl)N=O (stereo unspecified) | > 100 |

Each molecule was assayed on SW-620 colon (assay: DTP human tumour cell line panel, 48 h).

| Compound | TGI [µM] |
| --- | --- |
| COC(=O)/C(=N\NC(=O)c1ccccc1O)C(C#N)c1ccccc1 (stereo unspecified) | > 50 |
| O=S1(=O)OCCOS(=O)(=O)C1(Br)Cc1ccccc1 | > 100 |
| C=CCSc1ncnc2c1ncn2C1OC(CO)C(O)C1O (stereo unspecified) | > 100 |
| CC1CCC2(OCCO2)[C@]2(C)CC(O)C(=O)C=C12 (stereo partly specified) | > 100 |
| CCCCCCCCCCCCCC(=O)OC1C(O)C(CO)OC(OC)C1NC(=O)N(CCCl)N=O (stereo unspecified) | > 100 |

These molecules were tested on RPMI-8226 leukemia (assay: DTP human tumour cell line panel, 48 h).

| Compound | TGI [µM] |
| --- | --- |
| COC(=O)/C(=N\NC(=O)c1ccccc1O)C(C#N)c1ccccc1 (stereo unspecified) | > 50 |
| O=S1(=O)OCCOS(=O)(=O)C1(Br)Cc1ccccc1 | > 100 |
| C=CCSc1ncnc2c1ncn2C1OC(CO)C(O)C1O (stereo unspecified) | > 100 |
| CC1CCC2(OCCO2)[C@]2(C)CC(O)C(=O)C=C12 (stereo partly specified) | > 100 |
| CCCCCCCCCCCCCC(=O)OC1C(O)C(CO)OC(OC)C1NC(=O)N(CCCl)N=O (stereo unspecified) | > 100 |

These molecules were tested on DMS 273 small cell lung (assay: DTP human tumour cell line panel, 48 h).

| Compound | TGI [µM] |
| --- | --- |
| COC(=O)/C(=N\NC(=O)c1ccccc1O)C(C#N)c1ccccc1 (stereo unspecified) | > 50 |
| O=S1(=O)OCCOS(=O)(=O)C1(Br)Cc1ccccc1 | > 100 |
| C=CCSc1ncnc2c1ncn2C1OC(CO)C(O)C1O (stereo unspecified) | > 100 |
| CC1CCC2(OCCO2)[C@]2(C)CC(O)C(=O)C=C12 (stereo partly specified) | > 100 |
| CCCCCCCCCCCCCC(=O)OC1C(O)C(CO)OC(OC)C1NC(=O)N(CCCl)N=O (stereo unspecified) | > 100 |

What follows are molecules tested on EKVX NSCLC (assay: DTP human tumour cell line panel, 48 h).

| Compound | TGI [µM] |
| --- | --- |
| COC(=O)/C(=N\NC(=O)c1ccccc1O)C(C#N)c1ccccc1 (stereo unspecified) | > 48.4 |
| O=S1(=O)OCCOS(=O)(=O)C1(Br)Cc1ccccc1 | > 100 |
| C=CCSc1ncnc2c1ncn2C1OC(CO)C(O)C1O (stereo unspecified) | > 100 |
| CC1CCC2(OCCO2)[C@]2(C)CC(O)C(=O)C=C12 (stereo partly specified) | > 100 |

What follows are molecules tested on K-562 leukemia (assay: DTP human tumour cell line panel, 48 h).

| Compound | TGI [µM] |
| --- | --- |
| COC(=O)/C(=N\NC(=O)c1ccccc1O)C(C#N)c1ccccc1 (stereo unspecified) | > 50 |
| O=S1(=O)OCCOS(=O)(=O)C1(Br)Cc1ccccc1 | > 100 |
| C=CCSc1ncnc2c1ncn2C1OC(CO)C(O)C1O (stereo unspecified) | > 100 |
| CC1CCC2(OCCO2)[C@]2(C)CC(O)C(=O)C=C12 (stereo partly specified) | > 100 |
| CCCCCCCCCCCCCC(=O)OC1C(O)C(CO)OC(OC)C1NC(=O)N(CCCl)N=O (stereo unspecified) | > 100 |

What follows are molecules tested on SF-268 CNS (assay: DTP human tumour cell line panel, 48 h).

| Compound | TGI [µM] |
| --- | --- |
| COC(=O)/C(=N\NC(=O)c1ccccc1O)C(C#N)c1ccccc1 (stereo unspecified) | > 50 |
| O=S1(=O)OCCOS(=O)(=O)C1(Br)Cc1ccccc1 | > 100 |
| C=CCSc1ncnc2c1ncn2C1OC(CO)C(O)C1O (stereo unspecified) | > 100 |
| CC1CCC2(OCCO2)[C@]2(C)CC(O)C(=O)C=C12 (stereo partly specified) | > 100 |
| CCCCCCCCCCCCCC(=O)OC1C(O)C(CO)OC(OC)C1NC(=O)N(CCCl)N=O (stereo unspecified) | > 100 |
